Data published in paper PMC4904246 (Journal of Medicinal Chemistry, 2016).
Converted amounts (≈) assume the structure as drawn. Where two headings read alike, the source gives them in different places. Marks after values point to notes of the source that are not given here.

What was measured:
[1] = tested on: P. falciparum 3D7 cells; settings: read-out: EC50 Pf3D7 cells; previous reports; 2 from 15, 3 from 16; cited from earlier work
[2] = scaled; cited from earlier work
[3] = biological target: T1, PvDHODH (Plasmodium vivax, UniProt A5K1N1); settings: read-out: PvDHODH IC50; previous reports; 2 from 15, 3 from 16; cited from earlier work
T1 sequence (A5K1N1 160-572): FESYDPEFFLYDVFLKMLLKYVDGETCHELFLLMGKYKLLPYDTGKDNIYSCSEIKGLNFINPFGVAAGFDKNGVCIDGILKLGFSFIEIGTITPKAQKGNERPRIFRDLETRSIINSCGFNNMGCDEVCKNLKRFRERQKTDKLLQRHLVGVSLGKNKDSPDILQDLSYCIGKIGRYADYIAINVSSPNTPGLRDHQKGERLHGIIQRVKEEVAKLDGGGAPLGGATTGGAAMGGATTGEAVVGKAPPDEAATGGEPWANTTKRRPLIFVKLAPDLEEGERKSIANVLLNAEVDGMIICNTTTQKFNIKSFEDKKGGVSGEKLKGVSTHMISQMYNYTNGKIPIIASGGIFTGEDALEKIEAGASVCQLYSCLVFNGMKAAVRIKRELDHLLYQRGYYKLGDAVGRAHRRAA

[4] = biological target: T2, hDHODH (Homo sapiens, UniProt Q02127); settings: read-out: hDHODH IC50; previous reports; 2 from 15, 3 from 16; cited from earlier work
T2 sequence (Q02127 31-395 limits assumed): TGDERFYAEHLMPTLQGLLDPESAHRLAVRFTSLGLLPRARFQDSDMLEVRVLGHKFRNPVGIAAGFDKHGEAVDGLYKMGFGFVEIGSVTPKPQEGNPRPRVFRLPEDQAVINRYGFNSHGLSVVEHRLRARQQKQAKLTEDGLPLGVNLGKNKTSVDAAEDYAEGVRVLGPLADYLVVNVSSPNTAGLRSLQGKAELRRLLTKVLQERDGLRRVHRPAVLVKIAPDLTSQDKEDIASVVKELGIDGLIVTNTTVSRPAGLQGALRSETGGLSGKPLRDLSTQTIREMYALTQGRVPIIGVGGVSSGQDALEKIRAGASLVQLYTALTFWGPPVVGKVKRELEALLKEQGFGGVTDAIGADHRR

[5] = scaled; cited from earlier work; remark: listed apart in the source
[6] = pH 6.5, 30 min at room temperature; cited from earlier work
[7] = in vitro metabolism, human liver microsomes; assay type: in vitro ADME; settings: human, pooled human liver microsomes
[8] = kinetic aqueous solubility by nephelometry; assay type: physicochemical; settings: pH 6.5 phosphate buffer, pH 6.5
[9] = plasma protein binding by ultracentrifugation, rat plasma; assay type: in vitro ADME
[10] = plasma protein binding by ultracentrifugation, mouse plasma; assay type: in vitro ADME; settings: for mouse PPB (% bound): approximation based on rat and human plasma protein binding data; for PPB mouse (% bound): mouse plasma, ultracentrifugation
[11] = biological target: dog DHODH (Canis lupus familiaris, UniProt A0A8I3MWX2); experiment: biochemical
Sequence of dog DHODH (A0A8I3MWX2 1-406): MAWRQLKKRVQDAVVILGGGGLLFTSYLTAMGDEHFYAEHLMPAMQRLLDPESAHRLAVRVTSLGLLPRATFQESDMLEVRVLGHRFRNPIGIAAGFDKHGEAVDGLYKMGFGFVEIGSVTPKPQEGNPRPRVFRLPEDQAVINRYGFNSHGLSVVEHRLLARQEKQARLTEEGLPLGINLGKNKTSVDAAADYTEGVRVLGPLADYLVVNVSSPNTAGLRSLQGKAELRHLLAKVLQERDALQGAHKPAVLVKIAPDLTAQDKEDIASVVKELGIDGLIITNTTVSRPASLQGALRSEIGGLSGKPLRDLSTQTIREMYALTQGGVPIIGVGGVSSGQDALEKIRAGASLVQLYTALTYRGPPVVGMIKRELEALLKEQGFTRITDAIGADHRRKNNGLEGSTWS

[12] = biological target: T1, PvDHODH; settings: PvDHODH IC50 higher than PfDHODH IC50
[13] = tested on: P. falciparum Pf3D7_0087/N9 parasites; settings: for AUCED90: total blood AUC at the ED90, Day 1 pharmacokinetic data, QD, only two dose levels
[14] = plasma protein binding by ultracentrifugation, human plasma; assay type: in vitro ADME
[15] = in vivo; settings: Sprague-Dawley, rat, plasma, iv
[16] = biological target: hERG K+ channel (Homo sapiens, UniProt Q12809); settings: SCID study
Sequence of hERG K+ channel (Q12809 whole entry): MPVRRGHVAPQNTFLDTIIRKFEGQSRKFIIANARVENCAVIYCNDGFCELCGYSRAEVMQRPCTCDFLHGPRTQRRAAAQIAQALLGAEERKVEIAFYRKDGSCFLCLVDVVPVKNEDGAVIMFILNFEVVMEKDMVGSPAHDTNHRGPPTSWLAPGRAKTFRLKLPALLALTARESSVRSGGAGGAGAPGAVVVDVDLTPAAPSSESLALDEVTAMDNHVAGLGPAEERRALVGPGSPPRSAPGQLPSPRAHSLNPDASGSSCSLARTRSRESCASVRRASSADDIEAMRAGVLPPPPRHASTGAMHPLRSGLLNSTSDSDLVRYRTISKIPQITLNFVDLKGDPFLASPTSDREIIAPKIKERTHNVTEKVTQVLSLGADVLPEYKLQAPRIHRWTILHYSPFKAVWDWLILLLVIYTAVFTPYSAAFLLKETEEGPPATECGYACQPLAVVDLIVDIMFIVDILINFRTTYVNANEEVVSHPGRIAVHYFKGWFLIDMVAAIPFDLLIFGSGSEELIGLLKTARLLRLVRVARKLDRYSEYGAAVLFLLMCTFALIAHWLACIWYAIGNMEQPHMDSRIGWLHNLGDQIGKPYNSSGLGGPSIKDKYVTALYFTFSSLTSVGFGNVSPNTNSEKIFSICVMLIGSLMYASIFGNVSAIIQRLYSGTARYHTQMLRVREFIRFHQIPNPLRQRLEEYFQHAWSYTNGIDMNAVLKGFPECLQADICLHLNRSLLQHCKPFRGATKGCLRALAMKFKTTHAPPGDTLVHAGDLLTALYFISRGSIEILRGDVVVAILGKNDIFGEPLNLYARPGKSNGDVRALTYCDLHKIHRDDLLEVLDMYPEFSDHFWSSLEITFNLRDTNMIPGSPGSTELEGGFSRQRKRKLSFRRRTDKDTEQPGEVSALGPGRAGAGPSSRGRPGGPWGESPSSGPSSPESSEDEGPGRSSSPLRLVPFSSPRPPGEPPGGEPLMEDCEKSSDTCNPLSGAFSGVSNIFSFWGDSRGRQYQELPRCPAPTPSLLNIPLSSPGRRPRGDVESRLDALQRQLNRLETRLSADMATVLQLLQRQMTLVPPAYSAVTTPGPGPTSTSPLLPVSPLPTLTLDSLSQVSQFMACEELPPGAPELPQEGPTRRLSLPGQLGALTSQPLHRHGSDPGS

[17] = approximate
[18] = biological target: T2, hDHODH
[19] = biological target: T2, hDHODH; experiment: biochemical

For Cc1cc(Nc2ccc3ccccc3c2)n2ncnc2n1 [Compound 2, (5-methyl[1,2,4]triazolo[1,5-a]pyrimidin-7-yl)naphthalen-2-ylamine], the EC50 [1] is given as 0.068 µM, the “predicted in vivo CLint human” value [2] is given as 79 mL/min/kg and the IC50 [3] is given as 0.23 µM. The IC50 [4] was greater than 100 µM, the “predicted in vivo CLint mouse” value [5] was 591 mL/min/kg and the “kinetic solubility pH 6.5” value [6] was 12.5–25 μg/mL.
In the case of Cc1cc(Nc2ccc(C(F)(F)F)cc2)n2ncnc2n1 [Compound 3, (5-methyl[1,2,4]triazolo[1,5-a]pyrimidin-7-yl)(4-trifluoromethylphenyl)amine], the “predicted in vivo CLint human” value [2] is given as 6.2/ND/ND mL/min/kg, the IC50 [3] is given as 2.6 µM and the “kinetic solubility pH 6.5” value [6] is given as 6.3–12.5 μg/mL.
Compound Cc1cc(NC2CCc3cc(F)ccc3C2)n2nc(C(C)(F)F)nc2n1 (stereo not shown) [Compound 6, 2-(1,1-Difluoroethyl)-N-(6-fluoro-1,2,3,4-tetrahydronaphthalen-2-yl)-5-methyl-[1,2,4]triazolo[1,5-a]pyrimidin-7-amine] has a CLint scaled at 1 μM [7] of 12 mL/min/kg and a solubility kinetic at 30 min [8] of 6.3 to 12.5 µg/mL (≈ 17.4 to 34.6 µM).
In the case of Cc1cc(NC2CCc3cc(Cl)ccc3C2)n2nc(C(C)(F)F)nc2n1 (stereo not shown) [Compound 7, 2-(1,1-Difluoroethyl)-N-(6-chloro-1,2,3,4-tetrahydronaphthalen-2-yl)-5-methyl-[1,2,4]triazolo[1,5-a]pyrimidin-7-amine], the “PPB rat (% bound)” value [9] is reported as 99.2 % bound, the “mouse PPB (% bound)” value [10] is reported as 99.2 ^c % bound and the IC50 [11] is reported as greater than 100 µM. The “difference of IC50 P. vivax DHODH versus PfDHODH” value [12] was 5–8 fold, the AUCED90 [13] was greater than 23 μM·h/day and the “PPB human (% bound)” value [14] was 98.8 % bound. For the same compound, the CLint scaled at 1 μM [7] was less than 5.8 mL/min/kg, the solubility kinetic at 30 min [8] was 3.1 to 6.3 µg/mL (≈ 8.2 to 16.7 µM) and the clearance [15] was 3.5 mL/min/kg.
With Cc1cc(N[C@H]2CCc3ccc(Cl)cc3C2)n2nc(C(C)(F)F)nc2n1 [Compound 9, (S)-N-(7-Chloro-1,2,3,4-tetrahydronaphthalen-2-yl)-2-(1,1-difluoroethyl)-5-methyl-[1,2,4]triazolo[1,5-a]pyrimidin-7-amine] the “unbound Cmax at the ED90 lower than the IC50 on the hERG channel” value [16] was roughly 30 fold, the “PPB rat (% bound)” value [9] was 96.4 % bound and the “PPB mouse (% bound)” value [10] was 97.4 % bound. For the same compound, the IC50 [11] was greater than 100 µM, the “difference of IC50 P. vivax DHODH versus PfDHODH” value [12] was 1.5–3 fold and the “Cmax at the ED90 in the SCID study, unbound concentration” value [17] was “approximately 0.05 μM”. The “PPB human (% bound)” value [14] was 96.7 % bound, the CLint scaled at 1 μM [7] was less than 5.8 mL/min/kg and the solubility kinetic at 30 min [8] was 3.1 to 6.3 µg/mL (≈ 8.2 to 16.7 µM).
In the case of Cc1cc(NC2CCc3cc(Br)ccc3C2)n2nc(C(C)(F)F)nc2n1 (stereo not shown) [Compound 12, 2-(1,1-Difluoroethyl)-N-(6-bromo-1,2,3,4-tetrahydronaphthalen-2-yl)-5-methyl-[1,2,4]triazolo[1,5-a]pyrimidin-7-amine], the CLint scaled at 1 μM [7] is reported as less than 5.8 mL/min/kg and the solubility kinetic at 30 min [8] is reported as 3.1 to 6.3 µg/mL (≈ 7.34 to 14.9 µM).
For Cc1cc(NC2CCc3ccc(Br)cc3C2)n2nc(C(C)(F)F)nc2n1 (stereo not shown) [Compound 13, 2-(1,1-Difluoroethyl)-N-(7-bromo-1,2,3,4-tetrahydronaphthalen-2-yl)-5-methyl-[1,2,4]triazolo[1,5-a]pyrimidin-7-amine], the “PPB rat (% bound)” value [9] was 97.2 % bound, the “mouse PPB (% bound)” value [10] was 97.2 ^c % bound and the IC50 [11] was greater than 100 µM. The “difference of IC50 P. vivax DHODH versus PfDHODH” value [12] was 1.5–3 fold, the IC50 ([18]; read-out: DHODH IC50 human, Table 2, for 1 four independent replicates) was greater than 100 µM and the “PPB human (% bound)” value [14] was 96.3 % bound. For the same compound, the CLint scaled at 1 μM [7] was less than 5.8 mL/min/kg, the microsomal CLint at 1 μM [7] was less than 7 µL/min/mg and the IC50 [19] was greater than 100 µM. It also gave a solubility kinetic at 30 min [8] of 1.6 to 3.1 µg/mL (≈ 3.79 to 7.34 µM) and a clearance [15] of 22.4 mL/min/kg.
Cc1cc(NC2CCc3ccc(Br)cc3C2)n2nc(C(C)(F)F)nc2n1 (stereo not shown) [Compound 14, 2-(1,1-Difluoroethyl)-N-(7-bromo-1,2,3,4-tetrahydronaphthalen-2-yl)-5-methyl-[1,2,4]triazolo[1,5-a]pyrimidin-7-amine] gave an IC50 ([18]; read-out: hDHODH IC50) greater than 100 µM.
With COc1ccc2c(c1)CC(Nc1cc(C)nc3nc(C(C)(F)F)nn13)CC2 (stereo not shown) [Compound 16, 2-(1,1-Difluoroethyl)-N-(7-methoxy-1,2,3,4-tetrahydronaphthal-en-2-yl)-5-methyl-[1,2,4]triazolo[1,5-a]pyrimidin-7-amine] the CLint scaled at 1 μM [7] was 15 mL/min/kg and the solubility kinetic at 30 min [8] was 12.5 to 25 µg/mL (≈ 33.5 to 67 µM).
In the case of Cc1cc(NC2CCc3cc(F)c(F)cc3C2)n2nc(C(C)(F)F)nc2n1 (stereo not shown) [Compound 19, 2-(1,1-Difluoroethyl)-N-(6,7-difluoro-1,2,3,4-tetrahydronaphthalen-2-yl)-5-methyl-[1,2,4]triazolo[1,5-a]pyrimidin-7-amine], the CLint scaled at 1 μM [7] is reported as 9.1 mL/min/kg.
Cc1cc(NC2CCc3cc(F)c(C(F)(F)F)cc3C2)n2nc(C(C)(F)F)nc2n1 (stereo not shown) [Compound 20, 2-(1,1-Difluoroethyl)-N-(6-fluoro-7-(trifluoromethyl)-1,2,3,4-tetrahydronaphthalen-2-yl)-5-methyl-[1,2,4]triazolo[1,5-a]pyrimidin-7-amine] showed a CLint scaled at 1 μM [7] of less than 5.8 mL/min/kg and a solubility kinetic at 30 min [8] of 3.1 to 6.3 µg/mL (≈ 7.22 to 14.7 µM).
Compound Cc1cc(NC2CCc3cc(C(F)(F)F)c(F)cc3C2)n2nc(C(C)(F)F)nc2n1 (stereo not shown) [Compound 21, 2-(1,1-Difluoroethyl)-N-(7-fluoro-6-(trifluoromethyl)-1,2,3,4-tetrahydro-naphthalen-2-yl)-5-methyl-[1,2,4]triazolo[1,5-a]pyrimidin-7-amine] has a CLint scaled at 1 μM [7] of less than 5.8 mL/min/kg and a solubility kinetic at 30 min [8] of 1.6 to 3.1 µg/mL (≈ 3.73 to 7.22 µM).
In the case of Cc1cc(NC2CCc3ccc(Cl)cc3C2)n2nc(C(F)(F)F)nc2n1 (stereo not shown) [Compound 24, N-(7-Chloro-1,2,3,4-tetrahydronaphthalen-2-yl)-5-methyl-2-(trifluoromethyl)-[1,2,4]triazolo[1,5-a]pyrimidin-7-amine], the CLint scaled at 1 μM [7] is reported as 7.4 mL/min/kg and the solubility kinetic at 30 min [8] is reported as 1.6 to 3.1 µg/mL (≈ 4.19 to 8.12 µM).
Compound Cc1cc(NC2Cc3ccccc3C2)n2nc(C(C)(F)F)nc2n1 [Compound 26, 2-(1,1-Difluoroethyl)-N-(2,3-dihydro-1H-inden-2-yl)-5-methyl[1,2,4]triazolo[1,5-a]pyrim-idin-7-amine] has a CLint scaled at 1 μM [7] of 20 mL/min/kg and a solubility kinetic at 30 min [8] of 25 to 50 µg/mL (≈ 75.9 to 152 µM).
Compound Cc1cc(NC2Cc3ccc(Cl)cc3C2)n2nc(C(C)(F)F)nc2n1 (stereo not shown) [Compound 28, N-(5-Chloro-2,3-dihydro-1H-inden-2-yl)-2-(1,1-difluoroethyl)-5-methyl-[1,2,4]triazolo[1,5-a]pyrimidin-7-amine] has a CLint scaled at 1 μM [7] of 8.2 mL/min/kg and a solubility kinetic at 30 min [8] of 6.3 to 12.5 µg/mL (≈ 17.3 to 34.4 µM).
Cc1cc(NC2Cc3c(C)ccc(C)c3C2)n2nc(C(C)(F)F)nc2n1 [Compound 32, N-(4,7-Dimethyl-2,3-dihydro-1H-inden-2-yl)-2-(1,1-difluoroethyl)-5-methyl-[1,2,4]triazolo[1,5-a]pyrimidin-7-amine] gave a CLint scaled at 1 μM [7] of 138 mL/min/kg and a solubility kinetic at 30 min [8] of 6.3 to 12.5 µg/mL (≈ 17.6 to 35 µM).
In the case of Cc1cc(NC2Cc3c(F)ccc(F)c3C2)n2nc(C(C)(F)F)nc2n1 [Compound 33, N-(4,7-Difluoro-2,3-dihydro-1H-inden-2-yl)-2-(1,1-difluoroethyl)-5-methyl-[1,2,4]triazolo[1,5-a]pyrimidin-7-amine], the CLint scaled at 1 μM [7] is reported as 27 mL/min/kg and the solubility kinetic at 30 min [8] is reported as 6.3 to 12.5 µg/mL (≈ 17.2 to 34.2 µM).
For Cc1cc(NC2Cc3cccc(F)c3C2)n2nc(C(C)(F)F)nc2n1 (stereo not shown) [Compound 34, 2-(1,1-Difluoroethyl)-N-(4-fluoro-2,3-dihydro-1H-inden-2-yl)-5-methyl-[1,2,4]triazolo[1,5-a]pyrimidin-7-amine], the CLint scaled at 1 μM [7] was 9.1 mL/min/kg and the solubility kinetic at 30 min [8] was 12.5 to 25 µg/mL (≈ 36 to 72 µM).
For Cc1cc(NC2Cc3cc(F)c(F)cc3C2)n2nc(C(C)(F)F)nc2n1 [Compound 35, N-(5,6-Difluoro-2,3-dihydro-1H-inden-2-yl)-2-(1,1-difluoroethyl)-5-methyl-[1,2,4]triazolo[1,5-a]pyrimidin-7-amine], the “PPB rat (% bound)” value [9] was 94.2 % bound, the “PPB mouse (% bound)” value [10] was 95.3 % bound and the IC50 [11] was greater than 100 µM. The “difference of IC50 P. vivax DHODH versus PfDHODH” value [12] was 7 fold, the ED90 ([13]; oral QD for 4 days) was greater than 30 mg/kg and the AUCED90 [13] was “∼137 μM·h/day”. The “PPB human (% bound)” value [14] was 93.4 % bound, the CLint scaled at 1 μM [7] was less than 5.8 mL/min/kg and the solubility kinetic at 30 min [8] was 6.3 to 12.5 µg/mL (≈ 17.2 to 34.2 µM).
For Cc1cc(NC2Cc3cccc(C(F)(F)F)c3C2)n2nc(C(C)(F)F)nc2n1 (stereo not shown) [Compound 36, 2-(1,1-Difluoroethyl)-5-methyl-N-(4-(trifluoromethyl)-2,3-dihydro-1H-inden-2-yl)-[1,2,4]triazolo[1,5-a]pyrimidin-7-amine], the CLint scaled at 1 μM [7] was 25 mL/min/kg and the solubility kinetic at 30 min [8] was 6.3 to 12.5 µg/mL (≈ 15.9 to 31.5 µM).
